# Experimental data published in patent US5036097A, “Phenylbutyl nitrone compositions and methods for prevention of gastric ulceration” (Oklahoma Medical Research Foundation, priority 1990, dated 1991).
# Tests used:
# [1] = tested on: mitochondrial respiration; assay: mitochondrial respiration (liver mitochondria); assay type: biochemical, rat
# Protocol: Studies of Mitochondrial Respiration.
# Rat liver mitochondria are prepared using the method of Lai and Clark Methods Enzymol 55:51-60 (1979). The livers are excised rapidly into ice cold isolation medium containing 0.25M sucrose, 10 mM tris(hydroxymethyl)aminomethane (Tris), 0.25% bovine serum albumin (fatty acid free), and 0.5 mM potassium EDTA, pH 7.4. The tissue is minced and rinsed three times in cold isolation medium. The minced tissue is placed in a Dounce homogenizer with 20 ml cold isolation medium, gently homogenized, and diluted with an additional 10 ml of isolation medium. The homogenate is centrifuged at 2,000 g for 3 min., and the resulting supernatant recentrifuged at 12,500 g for 8 min. The crude mitochondrial pellet is suspended in 0.12M mannitol-0.03M sucrose medium containing 3% Ficoll, gently layered onto 20 ml of 6% Ficoll (0.25M mannitol-0.06M sucrose), and centrifuged at 11,500 g for 30 min. The resulting mitochondrial pellet is resuspended in the isolation medium and recentrifuged for 10 min. at 12,500 g. The final pellet is brought to a concentration of 10 to 15 mg of mitochondrial protein per ml with isolation medium. Mitochondrial protein is determined by the Biuret reaction described by Gornall, A. G., et al. Biol Chem 177:751-766 (1949), using bovine serum albumin as a standard. Mitochondrial respiration is measured polarographically in a magnetically stirred chamber at 25° C., using a Clark microelectrode (Diamond Electro-tech, Ann Arbor, Mich.). The incubation medium contains the following (in mM): 5K+, 226 mannitol, 75 sucrose, 5 Tris-phosphate, 10 Tris-Cl, and 0.05 EDTA at pH 7.4. State 4 respiratory rates are determined using both NADH-linked (2.5 mM malate+ 2 mM glutamate) and FADH2 -lined (10 mM succinate) substrates, with 5 mM KCl at pH 7.0. State 3 respiration rates are measured after stimulation with 1.5 mM ADP. Respiratory control ratios are determined as the ratio of State 3 to State 4 respiration after incubation with 0, 50, 100 and 200 μM piroxicam.
# gastric ulceration = conditions: rats and mice; cited from earlier work
# [2] = tested on: gastric mucosal glutathione; assay: glutathione in gastric mucosa; assay type: in vivo, rat; conditions: 4 h after piroxicam
# Protocol: MEASUREMENT OF GLUTATHIONE IN GASTRIC MUCOSA.
# Gastric mucosal glutathione is measured in piroxicam-and vehicle-treated rat stomachs. Four hours after piroxicam or vehicle, stomachs are opened, washed with ice cold saline, and spread along a flat surface with lumens exposed. The gastric mucosa is then removed by scraping with a surgical blade. The mucosa is homogenized on ice in 1 ml of 1.15% KCl. Two aliquots of 250 μl are snap frozen in liquid nitrogen and stored at -70° C. for later determination of total glutathione by the method of Anderson, M. E. Methods Enzymol 113:548-555 (1985) and protein by a modification of the Lowry method, described by Bennett, J. P. Techniques Lipid Membrane Biochem. B408:1-22 (1982), using bovine serum albumin as a standard. Results are expressed as nmole/mg protein. To measure oxidized glutathione (GSSG), the remaining 500 μl is mixed with an equal volume of N-ethylmaleimide (NEM) in water (10 mM final concentration of NEM), snap frozen and stored at -70° C. After thawing for analysis, this mixture is passed over a C-18 Sep-Pak column (Waters Associates, Milford, Mass.) and washed with 1 ml phosphate buffer (pH 7.5). This technique for removing excess NEM has been previously shown to result in >90% recovery of GSSG. GSSG is then assayed by the method used above to determine total glutathione.
# prostaglandin synthesis = conditions: cited from earlier work
# [3] = rat liver mitochondria, 0-200 μM piroxicam
smiles,measurement,setting,value
CN1C(C(=O)Nc2ccccn2)=C(O)c2ccccc2S1(=O)=O [piroxicam],respiratory control,[1]; FADH2-linked and NADH-linked substrates,inhibition of respiratory control
same,rate of mitochondrial oxygen uptake in the absence of ADP (State 4),[1]; [3],increases the rate of mitochondrial oxygen uptake
same,stimulation of respiration by ADP (State 3),[1]; [3],lost in the presence of piroxicam
same,ulcerogenicity,gastric ulceration,highly ulcerogenic
same,total glutathione in gastric mucosa,[2]; difference vs vehicle not statistically significant,0.33±0.03 nmoles/mg protein
same,fraction of GSSG,"[2]; vehicle 6.4 0.7%, not statistically significant",8.9±0.9%
same,inhibition of prostaglandin synthesis,prostaglandin synthesis,relative weak reversible inhibitor
